# Tested on: clinical MDR isolate (TB4001)
# Assay type: cell-based, Mycobacterium tuberculosis
row,SMILES,resistance of TB4001
1,CO[C@H]1/C=C/O[C@@]2(C)Oc3c(C)c(O)c4c(O)c(c(/C=N/N5CCN(C)CC5)c(O)c4c3C2=O)NC(=O)/C(C)=C\C=C\[C@H](C)[C@H](O)[C@@H](C)[C@@H](O)[C@@H](C)[C@H](OC(C)=O)[C@@H]1C [Rifampicin],resistant
2,NNC(=O)c1ccncc1 [Isoniazid],resistant
